From patent US10442835B2, “Water-soluble rapamycin derivatives” (Zhejiang Hisun Pharmaceutical Co., Ltd., priority 2016, dated 2019)

Assays:
[1] = Body weight of DU145 tumor nude mice; settings: for Body Weight, mean value / Decrease rate (body weight) / Decrease in body weight: 3×/w, 4 w;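 as to all read-outs here: dosing started once xenografts reached 150-200 mm^3, with mice randomized into three groups, loss of body weight served as an indirect sign of drug toxicity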
Method: DU145 (the 3rd generation) tumors in the rapid proliferation stage inoculated in the axilla of nude mice were cut into tumor lumps with a size of 1 mm*1 mm*1 mm and then were inoculated subcutaneously to the right limb of nude mice using a trocar under a sterile condition. When the tumors grow to 150-200 mm^3, the mice were randomly divided into three groups and then administrated with the compounds for 4 weeks. The major diameter (a) and the minor diameter (b) of the tumors were measured 2 or 3 times a week. The tumor volume (TV) was calculated with the following equation: TV=½×a×b^2. Tumors were stripped and weighted at Day 28 and the tumor inhibition rate was calculated using the following equation: (tumor weight of control−tumor weight of experimental group)/tumor weight of control×100%.
The nude mice were divided into 3 groups with 4 mice per group when the tumors averagely grew to about 185-200 mm^3, depending on the growth regularity of the tumor and the dosage regimen.
G1: positive drug group: Everolimus (5 mg/kg, qw, 4 w, 3×/w); administration route: intragastrical administration;

[2] = Body weight of NCI-H460 tumor nude mice; settings: for Body Weights, mean value / Decrease rate (body weight) / Decrease in body weight: everolimus 5 mg/kg, compound I-1 6.8 mg/kg, qw 4×;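 as to all read-outs here: Tumor-bearing mice dosed for 4 weeks once tumors reached 150–200 mm^3, with a vehicle control group, and body weight loss taken as an indirect sign of drug toxicity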
Method: NCI-H460 (the 3rd generation) tumors in the rapid proliferation stage inoculated in the axilla of nude mice were cut into tumor lumps with a size of 1 mm*1 mm*1 mm and then were inoculated subcutaneously to the right limb of nude mice using a trocar under a sterile condition. When the tumors grew to 150˜200 mm^3, the mice were divided into groups and then administrated with the compounds for 4 weeks. The major diameter (a) and the minor diameter (b) of the tumors were measured two or three times a week. The tumor volume (TV) and the relative tumor proliferation rate (T/C) were calculated. The equation for calculating the tumor volume is: TV=½×a×b^2. The equation for calculating the relative tumor proliferation rate is T/C=TRTC/CRTV (TRTC: average relative tumor volume in the treatment group; CRTV: average relative tumor volume in the vehicle control group). Tumors were stripped and weighted at Day 28 and the tumor-inhibition rate was calculated with the following equation: (tumor weight of control−tumor weight of experimental group)/tumor weight of control×100%.
Grouping method: the mice were divided into 3 groups with 6 mice per group when the tumors averagely grew to about 195 mm^3, depending on the growth regularity of the tumor and the dosage regimen. Administration route: intragastrical administration.
G1: Control (vehicle, qw 4×, iv)
G2: Positive drug group: Everolimus (5 mg/kg, qw 4×, iv)

[3] = Day 10, G3 compound I-1 1.7 mg/kg tail vein injection
[4] = Day 14, G2 compound I-1 3.4 mg/kg tail vein injection
[5] = Day 14, G3 compound I-1 1.7 mg/kg tail vein injection
[6] = Day 17, G2 compound I-1 3.4 mg/kg tail vein injection
[7] = Day 17, G3 compound I-1 1.7 mg/kg tail vein injection
[8] = Day 21, G2 compound I-1 3.4 mg/kg tail vein injection
[9] = Day 21, G3 compound I-1 1.7 mg/kg tail vein injection
[10] = Day 24, G2 compound I-1 3.4 mg/kg tail vein injection
[11] = Day 24, G3 compound I-1 1.7 mg/kg tail vein injection
[12] = Day 28, G2 compound I-1 3.4 mg/kg tail vein injection
[13] = Day 28, G3 compound I-1 1.7 mg/kg tail vein injection

## CO[C@H]1C[C@@H]2CC[C@@H](C)[C@@](O)(O2)C(=O)C(=O)N2CCCC[C@H]2C(=O)OC([C@H](C)C[C@@H]2CC[C@@H](OCCOC(=O)CSC[C@H](NC(=O)CC[C@H](N)C(=O)O)C(=O)NCC(=O)O)[C@H](OC)C2)CC(=O)[C@H](C)/C=C(\C)[C@@H](O)[C@@H](OC)C(=O)[C@H](C)C[C@@H](C)\C=C/C=C/C=C/1C (stereo partly shown) [Compound I-1]
[1]; [3]
  Body Weight, mean value: 27.18 g
  Decrease rate (body weight): −1.18%
[1]; Day 10 vs Day 0, G2 compound I-1 3.4 mg/kg tail vein injection
  Decrease in body weight: -0.85 g
[1]; Day 10 vs Day 0, G3 compound I-1 1.7 mg/kg tail vein injection
  Decrease in body weight: -0.32 g
[1]; [4]
  Body Weight, mean value: 26.59 g
  Decrease rate (body weight): −5.12%
[1]; [5]
  Body Weight, mean value: 27.69 g
  Decrease rate (body weight): −3.10%
[1]; Day 14 vs Day 0, G2 compound I-1 3.4 mg/kg tail vein injection
  Decrease in body weight: -1.30 g
[1]; Day 14 vs Day 0, G3 compound I-1 1.7 mg/kg tail vein injection
  Decrease in body weight: -0.83 g
[1]; [6]
  Body Weight, mean value: 26.34 g
  Decrease rate (body weight): −4.12%
[1]; [7]
  Body Weight, mean value: 27.81 g
  Decrease rate (body weight): −3.54%
[1]; Day 17 vs Day 0, G2 compound I-1 3.4 mg/kg tail vein injection
  Decrease in body weight: -1.04 g
[1]; Day 17 vs Day 0, G3 compound I-1 1.7 mg/kg tail vein injection
  Decrease in body weight: -0.95 g
[1]; [8]
  Body Weight, mean value: 26.84 g
  Decrease rate (body weight): −6.09%
[1]; [9]
  Body Weight, mean value: 28.10 g
  Decrease rate (body weight): −4.61%
[1]; Day 21 vs Day 0, G2 compound I-1 3.4 mg/kg tail vein injection
  Decrease in body weight: -1.54 g
[1]; Day 21 vs Day 0, G3 compound I-1 1.7 mg/kg tail vein injection
  Decrease in body weight: -1.24 g
[1]; [10]
  Body Weight, mean value: 26.58 g
  Decrease rate (body weight): −5.08%
[1]; [11]
  Body Weight, mean value: 28.12 g
  Decrease rate (body weight): −4.68%
[1]; Day 24 vs Day 0, G2 compound I-1 3.4 mg/kg tail vein injection
  Decrease in body weight: -1.29 g
[1]; Day 24 vs Day 0, G3 compound I-1 1.7 mg/kg tail vein injection
  Decrease in body weight: -1.26 g
[1]; [12]
  Body Weight, mean value: 26.96 g
  Decrease rate (body weight): −6.57%
[1]; [13]
  Body Weight, mean value: 28.27 g
  Decrease rate (body weight): −5.26%
[1]; Day 28 vs Day 0, G2 compound I-1 3.4 mg/kg tail vein injection
  Decrease in body weight: -1.66 g
[1]; Day 28 vs Day 0, G3 compound I-1 1.7 mg/kg tail vein injection
  Decrease in body weight: -1.41 g
[1]; injection administration of compound I-1 (3.4 and 1.7 mg/kg), judged from body weight
  toxic and side effect: does not result in obvious toxic and side effect
[2]; Day 0
  Body Weights, mean value: 26.20 g
[2]; Day 3
  Body Weights, mean value: 25.49 g
  Decrease rate (body weight): 2.73%
[2]; Day 3 vs Day 0
  Decrease in body weight: 0.72 g
[2]; Day 7
  Body Weights, mean value: 26.79 g
  Decrease rate (body weight): −2.23%
[2]; Day 7 vs Day 0
  Decrease in body weight: -0.58 g
[2]; Day 10
  Body Weights, mean value: 26.20 g
  Decrease rate (body weight): 0.00%
[2]; Day 10 vs Day 0
  Decrease in body weight: 0.00 g
[2]; Day 14
  Body Weights, mean value: 27.74 g
  Decrease rate (body weight): −5.87%
[2]; Day 14 vs Day 0
  Decrease in body weight: -1.54 g
[2]; Day 17
  Body Weights, mean value: 27.84 g
  Decrease rate (body weight): −6.24%
[2]; Day 17 vs Day 0
  Decrease in body weight: -1.64 g
[2]; Day 21
  Body Weights, mean value: 28.42 g
  Decrease rate (body weight): −8.46%
[2]; Day 21 vs Day 0
  Decrease in body weight: -2.22 g
[2]; Day 24
  Body Weights, mean value: 28.09 g
  Decrease rate (body weight): −7.20%
[2]; Day 24 vs Day 0
  Decrease in body weight: -1.89 g
[2]; Day 28
  Body Weights, mean value: 29.00 g
  Decrease rate (body weight): −10.68%
[2]; Day 28 vs Day 0
  Decrease in body weight: -2.80 g
[2]; judged from body weight, compound I-1 6.8 mg/kg vs everolimus 5 mg/kg
  toxic and side effect in vivo: significantly lower than that of everolimus
